Here are results for nine substances from PMC4070910, “Cathepsin S Signals via PAR2 and Generates a Novel Tethered Ligand Receptor Agonist” (PLoS ONE, 2014).

Entries after “also recorded” stand apart in the source; their conditions may differ.

Assay [1] concerns cathepsin S in keratinocytes. Conditions: cited from earlier work. The source says: We have identified a new peptide ligand generated by cathepsin S cleavage of PAR2. […] Our findings support a mechanism by which an N-terminal tethered ligand generated by cathepsin S cleavage might propagate PAR2 signaling in keratinocytes, or other target cells, surrounding a primary focus of inflammation. A possible scenario with respect to cutaneous inflammation could be as follows: IFN-γ, ...

For a further assay, the system named is cathepsin S. Put plainly: Cathepsin S digestion of the human PAR2 N-terminal peptide (LC/MS/MS). Conditions: cathepsin S 1 µM, pH 7.0, 37°C, 20 minutes; MS/MS sequencing. The format is biochemical. As for the experimental part:
Recombinant human cathepsin S was produced as follows. The human cathepsin S proprotein coding region was isolated by PCR using the forward and reverse primers […] CCTG and […] and a template of plasmid DNA containing the entire coding sequence of human cathepsin S. The PCR product was cut with Nco I and Xho I, and cloned into the pTYB4 expression vector from New England Biolabs for expression in E.coli. Cells were grown in LB medium induced with 0.3 mM IPTG, harvested by centrifugation, resuspended in lysis buffer A (0.5 M NaCl, 0.05 M Tris, 5 mM EDTA, pH 8.0) and lysed in a French press. The lysate was centrifuged and the protein was found predominantly in inclusion bodies which were dissolved in buffer B (10 mM DTT and 8 M urea), and refolded in the presence of buffer B containing 0.7 M L-arginine, 0.01 M glutathione, 0.001 M glutathione disulfide, and 0.005 M EDTA as described. […] The specific activity of cathepsin S was assayed using Z-VVR-AMC in fluorimetric and Z-FR-pNA in colorimetric assays[22] and determined to be 10,000 mU/mg protein.
A peptide comprising the N-terminus of PAR2, […], was dissolved in 50 mM Tris, pH 7.0, 0.1 M NaCl, 0.1 mM EDTA, and 0.01% Tween-20 to a concentration of 100 mM. […] The reaction samples were analyzed by the Harvard Microchemistry & Proteomics Analysis Facility (Cambridge, MA). […]

Assay [2] deals with human PAR2. Put plainly: Fura-2 calcium imaging in HeLa cells transfected with PAR2 cDNA. Type of assay: cell-based. Conditions: for Concentration-effect curve, calcium-dependent response (in words): peptides 1 nM - 1 mM, triplicate, Fura-2 ratiometric imaging. As to the method:
Human PAR2 cDNA was cloned as an Xho I-Hind III fragment (1206 bp) into pcDNA3.1(−). 10 µg of DNA were diluted into 0.5 ml of DMEM and mixed with 0.5 ml of DMEM containing 10 µl of Lipofectamine 2000 transfection reagent and incubated at room temperature for 20 minutes. HeLa cells were grown to confluence, trypsinized and 1×10^6 cells were pelleted in a 15 ml tube by centrifugation at 1000 rpm for 5 minutes. The DMEM-Lipofectamine 2000-DNA mixture (1 ml) was added to the cell pellet, resuspended gently and incubated at room temperature for 20 minutes. Four ml of complete DMEM with 10% FBS were added to the tube, mixed by inverting the tube several times, plated into a 96-well glass bottom plate at 20,000 cells/well, and placed in a 37°C CO2 incubator. HeLa cells transfected with vector alone or salmon sperm DNA (shown in the figures) were plated as a control. The medium was aspirated two days after transfection. Fura-2 was used as a ratiometric calcium-sensitive indicator as follows. 100 µl of complete DMEM containing 2 µM of Fura-2 were added to each well and left at room temperature in the dark for 1 hr. Following loading with Fura-2, the medium was aspirated and replaced with 90 µl of HEPES-buffered saline (20 mM HEPES, 115 mM NaCl, 5.4 mM KCl, 2 mM CaCl2, 0.8 mM MgCl2, 13.8 mM glucose, pH 7.4).
Imaging was performed using a Zeiss Axiovert 200 M microscope platform equipped with a flipping filter wheel for ratiometric imaging. Axiovision software, version 4.6 was used for image analysis of the cells which were excited at 340 nm and 380 nm. Ten µl of peptide agonist were added at 20 seconds after the start of the excitation procedure. Images were taken every 5 seconds, including at zero time, during a 3-minute period or longer if required. The software later analyzed all images taken during each excitation period. Typically, ratiometric changes were measured in 10–20 cells in each image. An average of the fluorescence of the cells in each image was calculated and plotted against time in seconds.
HeLa cells transfected with PAR2 cDNA were subjected to ratiometric imaging as described above with PAR2 peptides, SLIGRL, KVDGTS, and SLIGKVDGTS in addition to the reverse peptides LRGILS and STGDVK at concentrations from 1 nM - 1 mM. Each of the concentration-dependent readings was performed in triplicate. Maximum intensities at each of the dilutions were calculated and plotted against concentration using GraphPad/PRISM software version 6.0 (Irvine, CA). Error bars represent +/−SEM.

The test system of assay [3] is PKC (βII Ser660) phosphorylation in PAR2-transfected HeLa cells. Put plainly: Western blot for p-PKC (Ser660) in PAR2-transfected HeLa cells. Type of assay: cell-based, human. Conditions: 10 minutes, room temperature; SLIGRL 10 µM, SLIGKVDGTS 10 µM, KVDGTS 100 µM, cathepsin S 1 µM. As for the experimental part: HeLa cells were transfected with PAR2 plasmid DNA as described above. Untransfected HeLa cells were plated as a control. Forty-eight hours after transfection, cells were rinsed with PBS three times. Transfected HeLa cells were incubated with either SLIGRL (10 µM), SLIGKVDGTS (10 µM), KVDGTS (100 µM), or cathepsin S (1 µM) at room temperature for 10 minutes. Untransfected HeLa cells were treated with SLIGRL (10 µM) in a similar manner. A subset of transfected HeLa cells remained untreated and served as a negative control. After incubation, cells were harvested, pelleted and lysed by sequential freeze-thaw cycles. Cell lysates were centrifuged at 4°C for 15 minutes. Supernatants were collected and protein concentrations were determined by Bradford assay. Equal amounts of cell lysates were loaded onto NuPAGE Novex Bis-Tris mini gels, electrophoresed and transferred to nitrocellulose membranes using standard protocols. The blot was first probed with rabbit anti-phospho-PKC (βII Ser660) antibody (Cell Signalling Technology, Danvers, MA), and later reprobed with a mouse anti-actin antibody to identify the control actin band at 42 kDa. Primary antibodies were labeled with HRP-conjugated donkey anti-rabbit antibody and HRP-conjugated donkey anti-mouse antibody, respectively, followed by detection of the position of the antigen on the blot.
A general note: In western blotting, separated proteins are transferred to a membrane and probed.

Assay [4] relates to human PAR2. Put plainly: IP1 (IP-One HTRF) assay in PAR2-transfected HeLa cells. The format is cell-based. Particulars: 1 hour, 37°C; KVDGTS 100 µM, SLIGRL 10 µM, cathepsin S 1 µM; KVDGTS and SLIGRL after subtracting baseline values; cathepsin S 'in this particular experiment'. As for the experimental part: To determine the effect of PAR2 activation on Gq stimulation, we measured IP1, a downstream metabolite of IP3, using the IP-One HTRF assay from Cis Bio, Medford, MA. HeLa cells were transfected with salmon sperm DNA or PAR2 cDNA as described above, plated in 10 cm culture dishes and incubated at 37°C with 5% CO2. After 24 hours, the cells were trypsinized, counted, plated into 96-well plates at 80,000 cells/well and incubated for another 24 hours. The medium was replaced with a stimulation buffer containing LiCl, per the instructions of the manufacturer. Ligands, including cathepsin S (1 µM), KVDGTS (100 µM) and SLIGRL (10 µM) were added to wells and incubated at 37°C for 1 hour and IP1 levels determined. This assay was performed on multiple wells containing each ligand on three occasions. Error bars represent SEM.
For orientation: TR-FRET usually uses a lanthanide donor and a delayed reading to cut background.

Assay [5] deals with PAR2. Conditions: cited from earlier work; for PAR2 activation (in words): in vitro, plant proteases. The text has this: PAR2 signaling has been implicated in the development of inflammatory and bowel diseases, asthma, itch and pain. The receptor is expressed on many types of cells including keratinocytes, sensory neurons, fibroblasts, endothelial cells, and inflammatory cells, [3]. Consistent with this broad expression, PAR2 is involved in numerous physiologic and pathophysiologic processes in response to both endogenous and exogenous proteases.

Assay [6] deals with PAR2. Particulars: cited from earlier work. The source says: Proteases can activate PARs but it has been hypothesized that they can also inactivate them. […] As the cathepsin S cleavage sites identified here are downstream o ...

IFN-γ: mediator of inflammation: the “induction of cathepsin S (in words)” value in assay [1] is given as “potent inducer of cathepsin S in keratinocytes”.

For KVDGTSHVTGKGVT, in the assay on cathepsin S, the “cleavage points (in words)” value was “next most common sequence results in G at the P1 position”.

Take “LRGILS [reverse peptide of SLIGRL, negative control, reference compound]”: the “Concentration-effect curve, calcium-dependent response (in words)” value in the assay with human PAR2 [2] is “not active”.

For the substance “SLIGKVDGTS [decapeptide which encompasses SLIGKV and KVDGTS]”, in assay [3], the “PKC Ser660 phosphorylation (in words)” value is “weaker effect”. In addition, the “Concentration-effect curve, calcium-dependent response (in words)” value in the assay on human PAR2 [2] was “curves for SLIGRL and SLIGKVDGTS overlapped; also recorded: activity comparable to that of SLIGRL”.

In the assay with human PAR2 [4], “SLIGRL [positive control, reference compound]” returned an IP1 level of around 66 nM. Further, the “PKC Ser660 phosphorylation (in words)” value in assay [3] was “weaker effect”. In addition, the “intracellular calcium mobilization (in words)” value with PAR2 [5] (primary keratinocytes and various cell lines, no reference given) is reported as “provokes transient intracellular calcium mobilization”. For the same substance, in the assay with human PAR2 [2] (PAR2-transfected HeLa, after cathepsin S, papain or trypsin, up to 60 minutes, room temperature), the “calcium response to the substance as second agent after protease (in words)” value is “failed to induce a calcium response at any time up to 60 minutes”. For the same substance, the “Concentration-effect curve, calcium-dependent response (in words)” value in the assay with human PAR2 [2] was “curves for SLIGRL and SLIGKVDGTS overlapped”. In the assay on human PAR2 [2] (summary of these studies (discussion)), the “concentration at which active/effective” value turned out to be 10 µM.

As to “STGDVK [KVDGTS reverse peptide, reference compound]”, the “Concentration-effect curve, calcium-dependent response (in words)” value in the assay with human PAR2 [2] was “not active”.

As to bromelain, the “PAR2 activation (in words)” value in the assay on PAR2 [5] was “supporting activation”.

Turning to ficin, in the assay on PAR2 [5], the “PAR2 activation (in words)” value is on record as “supporting activation”.

For trypsin [reference compound], the “PAR2 cleavage site preference (in words)” value with PAR2 [6] is “cleave PAR2 primarily following arginine residues”. Besides, the “effect as first agent on calcium response to second agent (in words)” value in the assay on human PAR2 [2] (PAR2-transfected HeLa, KVDGTS 100 µM, cathepsin S 2 µM, papain 2 µM, trypsin 10 nM, second agent after up to 60 minutes, room temperature) is reported as “failed to induce a calcium response at any time up to 60 minutes”.
